Reference: ChEMBL document CHEMBL1201862, “PubChem BioAssay data set” (2004)
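Tested at 5 concentrations; 48 h exposure; 96-well plates; endpoints linearly interpolated, else capped at highest concentration. Abbreviation: GI50, concentration required for 50% inhibition of growth.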 Active and inactive are the calls of the source. Rule as the data show it: active = GI50 up to about 1.1 µM and inactive = higher.

Tests used:
Experiment in all cases: DTP human tumour cell line panel, 48 h
[1] = system: CCRF-CEM
[2] = system: U-251
[3] = system: K562
[4] = system: HT-29
[5] = system: MDA-N
[6] = system: EKVX
[7] = system: HOP-92
[8] = system: ACHN
[9] = system: OVCAR-5
[10] = system: 786-0
[11] = system: LOX IMVI
[12] = system: SF-295
[13] = system: NCI/ADR-RES
[14] = system: NCI-H23
[15] = system: UACC-62
[16] = system: SK-MEL-2
[17] = system: BT-549
[18] = system: M14
[19] = system: HL-60

Structure (SMILES) | GI50 [1] | GI50 [2] | GI50 [3] | GI50 [4] | GI50 [5] | GI50 [6] | GI50 [7] | GI50 [8] | GI50 [9] | GI50 [10] | GI50 [11] | GI50 [12] | GI50 [13] | GI50 [14] | GI50 [15] | GI50 [16] | GI50 [17] | GI50 [18] | GI50 [19]
COc1cc(C2SC(=N)Nc3c2c(C)nn3C(=O)c2ccc(Cl)cc2)cc(OC)c1OC (stereo not given) | > 10 µM (inactive) | > 10 µM (inactive) | > 10 µM (inactive) | > 10 µM (inactive) | > 10 µM (inactive) | > 10 µM (inactive) | > 10 µM (inactive) | > 10 µM (inactive) | > 10 µM (inactive) | > 10 µM (inactive) | > 10 µM (inactive) | > 10 µM (inactive) | > 10 µM (inactive) | > 10 µM (inactive) | > 10 µM (inactive) | > 10 µM (inactive) | > 10 µM (inactive) | > 10 µM (inactive) | > 10 µM (inactive)
O=C(O)C1(Cc2ccc3c(c2)CCC3)Cc2ccccc2C1 | 62.8 µM (inactive) | 65.8 µM (inactive) | 56.8 µM (inactive) | 88.3 µM (inactive) | > 100 µM (inactive) | 54.2 µM (inactive) | 29 µM (inactive) | 53.7 µM (inactive) | > 100 µM (inactive) | > 100 µM (inactive) | 87.1 µM (inactive) | 38.9 µM (inactive) | 78.2 µM (inactive) | 67.6 µM (inactive) | 76.6 µM (inactive) | > 100 µM (inactive) | 29.8 µM (inactive) | > 100 µM (inactive) | 35.2 µM (inactive)
CSc1nc(Br)nc2ncn(C3CC(Oc4ccc(C)cc4)C(COc4ccc(C)cc4)O3)c12 (stereo not given) | > 100 µM (inactive) | > 100 µM (inactive) | – | > 100 µM (inactive) | > 100 µM (inactive) | > 100 µM (inactive) | 34 µM (inactive) | 28.2 µM (inactive) | > 100 µM (inactive) | > 100 µM (inactive) | > 100 µM (inactive) | > 100 µM (inactive) | > 100 µM (inactive) | > 100 µM (inactive) | > 100 µM (inactive) | > 100 µM (inactive) | > 100 µM (inactive) | > 100 µM (inactive) | > 100 µM (inactive)
N#CC(c1ccccc1)N(CCOCCOCCN(C(=O)c1ccccc1)C(C#N)c1ccccc1)C(=O)c1ccccc1 (stereo not given) | 58.5 µM (inactive) | > 100 µM (inactive) | 56.6 µM (inactive) | > 100 µM (inactive) | > 100 µM (inactive) | > 100 µM (inactive) | 43.8 µM (inactive) | > 100 µM (inactive) | > 100 µM (inactive) | > 100 µM (inactive) | 91.2 µM (inactive) | > 100 µM (inactive) | 28.2 µM (inactive) | 84.7 µM (inactive) | 53.6 µM (inactive) | 85.3 µM (inactive) | > 100 µM (inactive) | > 100 µM (inactive) | 36.2 µM (inactive)
Cc1cccc2c1[nH]c1[nH]c(=O)[nH]c(=O)c12 | > 100 µM (inactive) | – | > 100 µM (inactive) | > 100 µM (inactive) | > 100 µM (inactive) | 83.8 µM (inactive) | > 100 µM (inactive) | > 100 µM (inactive) | > 100 µM (inactive) | > 100 µM (inactive) | > 100 µM (inactive) | > 100 µM (inactive) | > 100 µM (inactive) | > 100 µM (inactive) | > 100 µM (inactive) | > 100 µM (inactive) | > 100 µM (inactive) | > 100 µM (inactive) | > 100 µM (inactive)
COc1ccc2c(c1OC)OCC(CN(C)C)C2=O (stereo not given) | 2.15 µM (inactive) | 18.9 µM (inactive) | 3.63 µM (inactive) | 15.4 µM (inactive) | 18.2 µM (inactive) | 25.2 µM (inactive) | 4.99 µM (inactive) | 17.7 µM (inactive) | 19.1 µM (inactive) | 12.6 µM (inactive) | 14.3 µM (inactive) | > 100 µM (inactive) | 27.7 µM (inactive) | 17.1 µM (inactive) | 17.1 µM (inactive) | 16.7 µM (inactive) | 19.4 µM (inactive) | 17.3 µM (inactive) | 2.54 µM (inactive)
O=C1Sc2ccccc2NC1=C(C(=O)c1ccccc1)C(=O)c1ccccc1 | 1.18 µM (inactive) | 16 µM (inactive) | 2.88 µM (inactive) | 22.5 µM (inactive) | 33.7 µM (inactive) | 33.1 µM (inactive) | 36.6 µM (inactive) | 22.1 µM (inactive) | 47.1 µM (inactive) | 26.2 µM (inactive) | 13.5 µM (inactive) | 20.6 µM (inactive) | 22.3 µM (inactive) | 22.6 µM (inactive) | 27 µM (inactive) | 19.4 µM (inactive) | 35.9 µM (inactive) | 15.2 µM (inactive) | 1.87 µM (inactive)
C/C1=C\CC/C(C)=C/C=C(/C(C)C)CC/C(C(=O)O)=C/CC1 [CROTOCEMBRANEIC ACID] | 30.5 µM (inactive) | 35.1 µM (inactive) | 33.9 µM (inactive) | 46.7 µM (inactive) | 59 µM (inactive) | 39 µM (inactive) | 92.3 µM (inactive) | 34.5 µM (inactive) | > 100 µM (inactive) | 55.7 µM (inactive) | 54.8 µM (inactive) | 26.7 µM (inactive) | 44.8 µM (inactive) | 36.5 µM (inactive) | 25.8 µM (inactive) | 25.7 µM (inactive) | 61.5 µM (inactive) | 45 µM (inactive) | 33 µM (inactive)
CCc1c(Cc2cc(C)cc(C)c2)n2c(nc1=O)SCC2CBr (stereo not given) | 12.6 µM (inactive) | 24.8 µM (inactive) | > 50 µM (inactive) | > 50 µM (inactive) | > 50 µM (inactive) | 27 µM (inactive) | 9.93 µM (inactive) | > 50 µM (inactive) | > 50 µM (inactive) | > 50 µM (inactive) | > 50 µM (inactive) | – | > 50 µM (inactive) | > 50 µM (inactive) | > 50 µM (inactive) | 44.4 µM (inactive) | > 50 µM (inactive) | > 50 µM (inactive) | > 50 µM (inactive)
O=c1c2c3c(sc2nc2n1NC=NN2)CCCC3 | 0.731 µM (active) | 16 µM (inactive) | 2.15 µM (inactive) | 17.5 µM (inactive) | 16 µM (inactive) | 13.3 µM (inactive) | 18.1 µM (inactive) | 16.7 µM (inactive) | 18.2 µM (inactive) | 17.6 µM (inactive) | 2.49 µM (inactive) | 15.8 µM (inactive) | 26.7 µM (inactive) | 26.2 µM (inactive) | 17.6 µM (inactive) | 19.4 µM (inactive) | 17.5 µM (inactive) | 25.8 µM (inactive) | 1.2 µM (inactive)
O=C1NC(=O)C(CC(C(=O)C(=O)Nc2ccccc2Cl)C(=O)c2ccc3ccccc3c2)C(=O)N1 (stereo not given) | > 100 µM (inactive) | > 100 µM (inactive) | – | > 100 µM (inactive) | > 100 µM (inactive) | > 100 µM (inactive) | 61.9 µM (inactive) | > 100 µM (inactive) | > 100 µM (inactive) | > 100 µM (inactive) | > 100 µM (inactive) | > 100 µM (inactive) | > 100 µM (inactive) | > 100 µM (inactive) | > 100 µM (inactive) | > 100 µM (inactive) | > 100 µM (inactive) | > 100 µM (inactive) | > 100 µM (inactive)
